Test results reported in PubChem BioAssay (NCI).
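Protocol summary: plate cells (96-well), add compound at 5 concentrations, incubate 48 h, interpolate endpoints linearly. GI50 = concentration required for 50% inhibition of growth. TGI denotes the concentration required for complete inhibition of growth.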

Key:
Assay in all cases: NCI anticancer screen, dose series, 48 h
PC-3 prostate = test system: PC-3 prostate
HT29 colon = test system: HT29 colon
RXF 393 renal = test system: RXF 393 renal
786-0 renal = test system: 786-0 renal
HCT-116 colon = test system: HCT-116 colon
OVCAR-4 ovarian = test system: OVCAR-4 ovarian
IGROV1 ovarian = test system: IGROV1 ovarian
MDA-MB-231 breast = test system: MDA-MB-231 breast
SK-OV-3 ovarian = test system: SK-OV-3 ovarian
MALME-3M melanoma = test system: MALME-3M melanoma
NCI-H226 lung = test system: NCI-H226 lung
SF-295 CNS = test system: SF-295 CNS
SK-MEL-2 melanoma = test system: SK-MEL-2 melanoma
UO-31 renal = test system: UO-31 renal
DU-145 prostate = test system: DU-145 prostate
OVCAR-3 ovarian = test system: OVCAR-3 ovarian
HL-60(TB) leukemia = test system: HL-60(TB) leukemia
SNB-19 CNS = test system: SNB-19 CNS
ACHN renal = test system: ACHN renal
RPMI-8226 leukemia = test system: RPMI-8226 leukemia
SF-268 CNS = test system: SF-268 CNS
HCC-2998 colon = test system: HCC-2998 colon
SK-MEL-5 melanoma = test system: SK-MEL-5 melanoma
NCI-H522 lung = test system: NCI-H522 lung
EKVX NSCLC = test system: EKVX NSCLC
U251 CNS = test system: U251 CNS
SN12C renal = test system: SN12C renal
OVCAR-8 ovarian = test system: OVCAR-8 ovarian
NCI-H460 lung = test system: NCI-H460 lung
NCI-H23 lung = test system: NCI-H23 lung
HS 578T breast = test system: HS 578T breast
SK-MEL-28 melanoma = test system: SK-MEL-28 melanoma
HCT-15 colon = test system: HCT-15 colon
OVCAR-5 ovarian = test system: OVCAR-5 ovarian
M14 melanoma = test system: M14 melanoma
HOP-62 NSCLC = test system: HOP-62 NSCLC
SW-620 colon = test system: SW-620 colon
MCF7 breast = test system: MCF7 breast
COLO 205 colon = test system: COLO 205 colon
T-47D breast = test system: T-47D breast
SR leukemia = test system: SR leukemia
A498 renal = test system: A498 renal
A549 NSCLC = test system: A549 NSCLC
MDA-MB-435 = test system: MDA-MB-435
BT-549 breast = test system: BT-549 breast
TK-10 renal = test system: TK-10 renal
KM12 colon = test system: KM12 colon
CAKI-1 renal = test system: CAKI-1 renal
SF-539 CNS = test system: SF-539 CNS
UACC-62 melanoma = test system: UACC-62 melanoma
K-562 leukemia = test system: K-562 leukemia
NCI/ADR-RES ovarian = test system: NCI/ADR-RES ovarian
MOLT-4 leukemia = test system: MOLT-4 leukemia
UACC-257 melanoma = test system: UACC-257 melanoma

Cc1cc(S(N)(=O)=O)c(S/C(=N\Nc2ccc([N+](=O)[O-])cc2)c2ccc(O)cc2)cc1Cl
GI50 (PC-3 prostate): 3.26 µM | TGI (PC-3 prostate): 8.55 µM | GI50 (HT29 colon): 3.29 µM | TGI (HT29 colon): 7.35 µM | GI50 (RXF 393 renal): 0.676 µM | TGI (RXF 393 renal): 3.5 µM | GI50 (786-0 renal): 3.8 µM | TGI (786-0 renal): 13.5 µM | GI50 (HCT-116 colon): 2.89 µM | TGI (HCT-116 colon): 10.6 µM | GI50 (OVCAR-4 ovarian): 3.43 µM | TGI (OVCAR-4 ovarian): 7.94 µM | GI50 (IGROV1 ovarian): 4.62 µM | TGI (IGROV1 ovarian): 19.9 µM | GI50 (MDA-MB-231 breast): 1.78 µM | TGI (MDA-MB-231 breast): 4.67 µM | GI50 (SK-OV-3 ovarian): 4.32 µM | TGI (SK-OV-3 ovarian): 18.4 µM | GI50 (MALME-3M melanoma): 1.73 µM | TGI (MALME-3M melanoma): 4.37 µM | GI50 (NCI-H226 lung): 2.67 µM | TGI (NCI-H226 lung): 7.08 µM | GI50 (SF-295 CNS): 2.07 µM | TGI (SF-295 CNS): 3.92 µM | GI50 (SK-MEL-2 melanoma): 3.9 µM | TGI (SK-MEL-2 melanoma): 53.3 µM | GI50 (UO-31 renal): 5.66 µM | TGI (UO-31 renal): 23 µM | GI50 (DU-145 prostate): 5.31 µM | TGI (DU-145 prostate): 23.9 µM | GI50 (OVCAR-3 ovarian): 2.06 µM | TGI (OVCAR-3 ovarian): 4.04 µM | GI50 (HL-60(TB) leukemia): 1.98 µM | TGI (HL-60(TB) leukemia): > 100 µM | GI50 (SNB-19 CNS): 4.46 µM | TGI (SNB-19 CNS): 16.1 µM | GI50 (ACHN renal): 3.09 µM | TGI (ACHN renal): 12.9 µM | GI50 (RPMI-8226 leukemia): 1.66 µM | TGI (RPMI-8226 leukemia): 4.3 µM | GI50 (SF-268 CNS): 2.22 µM | TGI (SF-268 CNS): 8.19 µM | GI50 (HCC-2998 colon): 1.65 µM | TGI (HCC-2998 colon): 3.87 µM | GI50 (SK-MEL-5 melanoma): 1.86 µM | TGI (SK-MEL-5 melanoma): 3.38 µM | GI50 (NCI-H522 lung): 6.07 µM | TGI (NCI-H522 lung): 43.5 µM | GI50 (EKVX NSCLC): 6.82 µM | TGI (EKVX NSCLC): 22.6 µM | GI50 (U251 CNS): 2.87 µM | TGI (U251 CNS): 11.1 µM | GI50 (SN12C renal): 2.38 µM | TGI (SN12C renal): 5.29 µM | GI50 (OVCAR-8 ovarian): 5.72 µM | TGI (OVCAR-8 ovarian): 21.7 µM | GI50 (NCI-H460 lung): 2.94 µM | TGI (NCI-H460 lung): 10.1 µM | GI50 (NCI-H23 lung): 2.42 µM | TGI (NCI-H23 lung): 7.54 µM | GI50 (HS 578T breast): 2.92 µM | TGI (HS 578T breast): 9.27 µM | GI50 (SK-MEL-28 melanoma): 2.62 µM | TGI (SK-MEL-28 melanoma): 5.73 µM | GI50 (HCT-15 colon): 3.54 µM | TGI (HCT-15 colon): 23.2 µM | GI50 (OVCAR-5 ovarian): 2.09 µM | TGI (OVCAR-5 ovarian): 4.71 µM | GI50 (M14 melanoma): 2.61 µM | TGI (M14 melanoma): 7.15 µM | GI50 (HOP-62 NSCLC): 5.02 µM | TGI (HOP-62 NSCLC): 16.8 µM | GI50 (SW-620 colon): 3.54 µM | TGI (SW-620 colon): 11.6 µM | GI50 (MCF7 breast): 2.19 µM | TGI (MCF7 breast): 5.06 µM | GI50 (COLO 205 colon): 4.21 µM | TGI (COLO 205 colon): 17.6 µM | GI50 (T-47D breast): 2.54 µM | TGI (T-47D breast): 6.64 µM | GI50 (SR leukemia): 51.6 µM | TGI (SR leukemia): > 100 µM | GI50 (A498 renal): 7.56 µM | TGI (A498 renal): 20.5 µM | GI50 (A549 NSCLC): 4.06 µM | TGI (A549 NSCLC): 29.6 µM | GI50 (MDA-MB-435): 1.8 µM | TGI (MDA-MB-435): 3.44 µM | GI50 (BT-549 breast): 7.68 µM | TGI (BT-549 breast): 22.7 µM | GI50 (TK-10 renal): 2.01 µM | TGI (TK-10 renal): 5.16 µM | GI50 (KM12 colon): 1.96 µM | TGI (KM12 colon): 4.14 µM | GI50 (CAKI-1 renal): 2.3 µM | TGI (CAKI-1 renal): 5.22 µM | GI50 (SF-539 CNS): 3.39 µM | TGI (SF-539 CNS): 8.74 µM | GI50 (UACC-62 melanoma): 1.79 µM | TGI (UACC-62 melanoma): 3.84 µM | GI50 (K-562 leukemia): 2.7 µM | TGI (K-562 leukemia): > 100 µM | GI50 (NCI/ADR-RES ovarian): 2.64 µM | TGI (NCI/ADR-RES ovarian): 8.57 µM | GI50 (MOLT-4 leukemia): 2.97 µM | TGI (MOLT-4 leukemia): > 100 µM | GI50 (UACC-257 melanoma): 5.22 µM | TGI (UACC-257 melanoma): 19.3 µM
